≈ marks a conversion by molar mass, not a printed value.

The nature of the data set: Water solubility of the active agent. Format: physicochemical. As to conditions: in water; read-out: Wasserlöslichkeit.

With `CC(=O)Nc1ccc(O)cc1` [Acetaminophen], the solubility is 14 mg/mL (≈ 92.6 mM).
In the case of `Oc1ccc(O)cc1` [Hydrochinon], the solubility was approximately 70 mg/mL (≈ 636 mM).

The values are drawn from EP0168522A2, “Active agent-containing shaped article” (Akzo Patente GmbH, priority 1983, dated 1986).
